In patent publication US20060029743A1, “Wood preservatives and methods of wood preservation” (priority 2004, published 2006):
Converted amounts (≈) assume the structure as drawn. Read-outs that look alike come from different tables or passages of the source.

Key:
Experiment in all cases: 6-well plate assay, minimal inhibitory concentration
Format in all cases: cell-based
Chaetomium globosum = conditions: for MIC: Chaetomium globosum, 168 h, read-out: Effectiveness at Inhibiting Wood-Rotting Fungi, SR1 (minimal inhibitory concentration)
Protocol: (§1) The minimal inhibitory concentration of fungicides against eight fungi was determined in 6-well microtiter plates. Minimal inhibitory concentration is defined as the lowest concentration at which no fungus growth is evident after seven days. A group of eight fungi were used in a screen to identify potential active ingredients to preserve wood. The eight fungi, their classification, and the growth media used to culture them are listed below:
(§2) Growth media were purchased from Difco (from Beckton Dickinson and Co., Sparks, Md.). The growth media were added to water to 2% w/v and autoclaved at 121° C. for 30 min. Autoclaved media were allowed to cool down to ˜50° C. Test chemicals were dissolved in DMSO (dimethyl sulfoxide) individually at 10 mg/mL to generate stock solutions. An appropriate amount of a stock solution was then added to the appropriate growth medium at 50° C. to make up the test media containing various concentrations of individual test chemicals. 10 mL of the medium was added to each well of a 6-well plate and allowed to solidify at room temperature. For each plate, the first well had no chemical, and the remaining five wells contained a particular test chemical at five different concentrations. Eight such plates were prepared for each chemical, using the eight media listed above for the eight test organisms.
(§3) After the media solidified and cooled, a plug (˜2 mm×2 mm) of agar growth medium with fresh grown mycelium from the appropriate fungal culture was used to inoculate each well. The plate was placed in an incubator, and the growth of the fungus monitored. After 4 to 7 days, the growth was scored manually.

Antrodia vaillantii = conditions: for MIC: Fibroporia vaillantii, 168 h, read-out: Effectiveness at Inhibiting Wood-Rotting Fungi, BR3 (minimal inhibitory concentration)
Protocol: as §1, §2, §3

Gloeophyllum trabeum = conditions: for MIC: Gloeophyllum trabeum, 168 h, read-out: Effectiveness at Inhibiting Wood-Rotting Fungi, BR2 (minimal inhibitory concentration)
Protocol: as §1, §2, §3

Postia placenta = conditions: for MIC: Rhodonia placenta, 168 h, read-out: Effectiveness at Inhibiting Wood-Rotting Fungi, BR1 (minimal inhibitory concentration)
Protocol: as §1, §2, §3

Irpex lacteus = conditions: for MIC: Irpex lacteus, 168 h, read-out: Effectiveness at Inhibiting Wood-Rotting Fungi, WR2 (minimal inhibitory concentration)
Protocol: as §1, §2, §3

Trametes versicolor = conditions: for MIC: Trametes versicolor, 168 h, read-out: Effectiveness at Inhibiting Wood-Rotting Fungi, WR1 (minimal inhibitory concentration)
Protocol: as §1, §2, §3

[1] = tested on: Phanerochaete chrysosporium; conditions: for MIC: Phanerodontia chrysosporium, 168 h, read-out: Effectiveness at Inhibiting Wood-Rotting Fungi, WR3 (minimal inhibitory concentration)
Protocol: as §1, §2, §3

[2] = 6-well agar plate, lowest concentration with no growth after seven days

Row | Structure (SMILES) | MIC (Chaetomium globosum; [2]) [µg/mL] | MIC (Antrodia vaillantii; [2]) [µg/mL] | MIC (Gloeophyllum trabeum; [2]) [µg/mL] | MIC (Postia placenta; [2]) [µg/mL] | MIC (Irpex lacteus; [2]) [µg/mL] | MIC (Trametes versicolor; [2]) [µg/mL] | MIC [1, 2] [µg/mL] | also measured
1 | CN(C)C(=S)[S-].CN(C)C(=S)[S-].CN(C)C(=S)[S-].[Fe+3] [Ferbam] | – | – | – | – | – | – | – | Effectiveness at Inhibiting Wood-Rotting Fungi, SR1 (minimal inhibitory concentration) (Chaetomium globosum; [2]): 2 (“2” indicates inhibition at about 1-100 ppm); Effectiveness at Inhibiting Wood-Rotting Fungi, BR3 (minimal inhibitory concentration) (Antrodia vaillantii; [2]): 2 (“2” indicates inhibition at about 1-100 ppm); Effectiveness at Inhibiting Wood-Rotting Fungi, BR2 (minimal inhibitory concentration) (Gloeophyllum trabeum; [2]): 3 (“3” indicates inhibition (if any) only at >100 ppm); Effectiveness at Inhibiting Wood-Rotting Fungi, BR1 (minimal inhibitory concentration) (Postia placenta; [2]): 1 (“1” indicates effective inhibition at 1 ppm or less); Effectiveness at Inhibiting Wood-Rotting Fungi, WR2 (minimal inhibitory concentration) (Irpex lacteus; [2]): 2 (“2” indicates inhibition at about 1-100 ppm); Effectiveness at Inhibiting Wood-Rotting Fungi, WR1 (minimal inhibitory concentration) (Trametes versicolor; [2]): 2 (“2” indicates inhibition at about 1-100 ppm); Effectiveness at Inhibiting Wood-Rotting Fungi, WR3 (minimal inhibitory concentration) [1, 2]: 2 (“2” indicates inhibition at about 1-100 ppm)
2 | CCCN(CCOc1c(Cl)cc(Cl)cc1Cl)C(=O)n1ccnc1 [Prochloraz] | – | – | – | – | – | – | – | MIC (Chaetomium globosum): < 1 µg/mL; MIC (Antrodia vaillantii): 1 to 100 µg/mL (≈ 2.65 to 265 µM); MIC (Gloeophyllum trabeum): > 100 µg/mL; MIC (Postia placenta): > 100 µg/mL; MIC (Irpex lacteus): 1 to 100 µg/mL (≈ 2.65 to 265 µM); MIC (Trametes versicolor): 1 to 100 µg/mL (≈ 2.65 to 265 µM); MIC [1]: 1 to 100 µg/mL (≈ 2.65 to 265 µM)
3 | CCCCNC(=O)n1c(NC(=O)OC)nc2ccccc21 [Benomyl] | < 1 | 1 to 100 (≈ 3.44 to 344 µM) | > 100 | 1 to 100 (≈ 3.44 to 344 µM) | > 100 | > 100 | 1 to 100 (≈ 3.44 to 344 µM) | –
4 | CC1=C(C(=O)Nc2ccccc2)SCCO1 [Carboxin] | – | – | – | – | – | – | – | MIC (Chaetomium globosum): 1 to 100 µg/mL (≈ 4.25 to 425 µM); MIC (Antrodia vaillantii): < 1 µg/mL; MIC (Gloeophyllum trabeum): < 1 µg/mL; MIC (Postia placenta): 1 to 100 µg/mL (≈ 4.25 to 425 µM); MIC (Irpex lacteus): < 1 µg/mL; MIC (Trametes versicolor): < 1 µg/mL; MIC [1]: < 1 µg/mL
5 | CC(C)(C)C(O)C(Oc1ccc(Cl)cc1)n1cncn1 (stereo not shown) [Baytan] | – | – | – | – | – | – | – | Effectiveness at Inhibiting Wood-Rotting Fungi, SR1 (minimal inhibitory concentration) (Chaetomium globosum; [2]): 3 (“3” indicates inhibition (if any) only at >100 ppm); Effectiveness at Inhibiting Wood-Rotting Fungi, BR3 (minimal inhibitory concentration) (Antrodia vaillantii; [2]): 1 (“1” indicates effective inhibition at 1 ppm or less); Effectiveness at Inhibiting Wood-Rotting Fungi, BR2 (minimal inhibitory concentration) (Gloeophyllum trabeum; [2]): 1 (“1” indicates effective inhibition at 1 ppm or less); Effectiveness at Inhibiting Wood-Rotting Fungi, BR1 (minimal inhibitory concentration) (Postia placenta; [2]): 2 (“2” indicates inhibition at about 1-100 ppm); Effectiveness at Inhibiting Wood-Rotting Fungi, WR2 (minimal inhibitory concentration) (Irpex lacteus; [2]): 1 (“1” indicates effective inhibition at 1 ppm or less); Effectiveness at Inhibiting Wood-Rotting Fungi, WR1 (minimal inhibitory concentration) (Trametes versicolor; [2]): 1 (“1” indicates effective inhibition at 1 ppm or less); Effectiveness at Inhibiting Wood-Rotting Fungi, WR3 (minimal inhibitory concentration) [1, 2]: 1 (“1” indicates effective inhibition at 1 ppm or less)
6 | c1ccc2[nH]c(-c3cscn3)nc2c1 [Thiabendazole] | < 1 | > 100 | > 100 | > 100 | > 100 | > 100 | > 100 | –
7 | CCCC1COC(Cn2cncn2)(c2ccc(Cl)cc2Cl)O1 (stereo not shown) [Propiconazole] | < 1 | < 1 | < 1 | < 1 | < 1 | < 1 | < 1 | –
8 | CO/C=C(\C(=O)OC)c1ccccc1Oc1cc(Oc2ccccc2C#N)ncn1 [Axoxystrobin] | – | – | – | – | – | – | – | Effectiveness at Inhibiting Wood-Rotting Fungi, SR1 (minimal inhibitory concentration) (Chaetomium globosum; [2]): 3 (“3” indicates inhibition (if any) only at >100 ppm); Effectiveness at Inhibiting Wood-Rotting Fungi, BR3 (minimal inhibitory concentration) (Antrodia vaillantii; [2]): 1 (“1” indicates effective inhibition at 1 ppm or less); Effectiveness at Inhibiting Wood-Rotting Fungi, BR2 (minimal inhibitory concentration) (Gloeophyllum trabeum; [2]): 1 (“1” indicates effective inhibition at 1 ppm or less); Effectiveness at Inhibiting Wood-Rotting Fungi, BR1 (minimal inhibitory concentration) (Postia placenta; [2]): 1 (“1” indicates effective inhibition at 1 ppm or less); Effectiveness at Inhibiting Wood-Rotting Fungi, WR2 (minimal inhibitory concentration) (Irpex lacteus; [2]): 3 (“3” indicates inhibition (if any) only at >100 ppm); Effectiveness at Inhibiting Wood-Rotting Fungi, WR1 (minimal inhibitory concentration) (Trametes versicolor; [2]): 3 (“3” indicates inhibition (if any) only at >100 ppm); Effectiveness at Inhibiting Wood-Rotting Fungi, WR3 (minimal inhibitory concentration) [1, 2]: 3 (“3” indicates inhibition (if any) only at >100 ppm)
9 | CC(C)(C)C(O)(CCc1ccc(Cl)cc1)Cn1cncn1 (stereo not shown) [Tebuconazole] | 1 to 100 (≈ 3.25 to 325 µM) | < 1 | < 1 | < 1 | < 1 | < 1 | < 1 | –
10 | Nc1nc(=O)[nH]cc1F [5-Fluorocytosine] | > 100 | 1 to 100 (≈ 7.75 to 775 µM) | > 100 | < 1 | > 100 | 1 to 100 (≈ 7.75 to 775 µM) | > 100 | –
11 | COC(=O)Nc1nc2ccccc2[nH]1 [Carbendazim] | < 1 | 1 to 100 (≈ 5.23 to 523 µM) | > 100 | 1 to 100 (≈ 5.23 to 523 µM) | 1 to 100 (≈ 5.23 to 523 µM) | > 100 | 1 to 100 (≈ 5.23 to 523 µM) | –
12 | CC(Cc1ccc(C(C)(C)C)cc1)CN1C[C@@H](C)O[C@@H](C)C1 (stereo partly shown) [Fenpropimorph] | > 100 | 1 to 100 (≈ 3.3 to 330 µM) | < 1 | < 1 | 1 to 100 (≈ 3.3 to 330 µM) | 1 to 100 (≈ 3.3 to 330 µM) | 1 to 100 (≈ 3.3 to 330 µM) | –
13 | CON=C(C(=O)OC)c1ccccc1CON=C(C)c1cccc(C(F)(F)F)c1 [Trifloxystrobin] | > 100 | < 1 | < 1 | 1 to 100 (≈ 2.45 to 245 µM) | > 100 | > 100 | > 100 | –
14 | O=[N+]([O-])c1c(Cl)c(Cl)c(Cl)c(Cl)c1Cl [Pentachloronitrobenzene] | – | – | – | – | – | – | – | MIC (Chaetomium globosum): < 1 µg/mL; MIC (Antrodia vaillantii): > 100 µg/mL; MIC (Gloeophyllum trabeum): 1 to 100 µg/mL (≈ 3.39 to 339 µM); MIC (Postia placenta): 1 to 100 µg/mL (≈ 3.39 to 339 µM); MIC (Irpex lacteus): > 100 µg/mL; MIC (Trametes versicolor): > 100 µg/mL; MIC [1]: > 100 µg/mL
15 | O=[N+]([O-])c1cc(C(F)(F)F)c(Cl)c([N+](=O)[O-])c1Nc1ncc(C(F)(F)F)cc1Cl [Fluazinam] | < 1 | < 1 | < 1 | < 1 | 1 to 100 (≈ 2.15 to 215 µM) | 1 to 100 (≈ 2.15 to 215 µM) | 1 to 100 (≈ 2.15 to 215 µM) | –
16 | Oc1cccc2cccnc12 [8-Hydroxyquinoline] | – | – | – | – | – | – | – | MIC (Chaetomium globosum): > 100 µg/mL; MIC (Antrodia vaillantii): < 1 µg/mL; MIC (Gloeophyllum trabeum): > 100 µg/mL; MIC (Postia placenta): 1 to 100 µg/mL (≈ 6.89 to 689 µM); MIC (Irpex lacteus): 1 to 100 µg/mL (≈ 6.89 to 689 µM); MIC (Trametes versicolor): 1 to 100 µg/mL (≈ 6.89 to 689 µM); MIC [1]: > 100 µg/mL
